{"source": "patent US12528774B2", "about": "“Thiosemicarbazone compounds and uses thereof” (The Regents of the University of California, priority 2019, dated 2026)", "key": {"[1]": {"tested_on": "MIAPACA2 cells", "assay": "Proliferation assay (CellTiter-Glo, 72 h) in MIAPACA2 cells", "type": "cell-based, human", "settings": "for IC90: Homo sapiens, MIA PaCa-2, 72 h, MIAPACA2, 72 h", "protocol": "IC90 values against MIAPACA2 cells was first determined in normal cell culture conditions (DMEM media and 10% FBS). Compounds were separated into three series (4′ primary amines, 4′ secondary amines, 4′ tertiary amines) to reflect the relative degrees of 4′ amine methylation. […] (Refs 41, 42).\nHCT compounds are known to be copper chelators. (Ref. 32). To test whether the compounds described herein were similarly potentiated, the IC90 (+Cu IC90) values were determined against MIAPACA2 cells in media supplemented with physiologically relevant levels of copper (DMEM media+10% FBS+20 μM CuCl2). MIAPACA2 cells were treated with the indicated HCT±20 μM Cu(II) for 72 hours, then cell viability was measured with CellTiter-Glo to determine IC90 values.\n(§1) Proliferation assay: Cells were plated in 384-well plates (500 cells/well for adherent cell lines in 30 μl volume). Drugs were serially diluted to the desired concentrations and an equivalent volume of DMSO was added to vehicle control. Following 72 h incubation, ATP content was measured using CellTiter-Glo reagent according to manufacturer's instructions (Promega, CellTiter-Glo Luminescent Cell Viability Assay), and analyzed by SpectraMax luminometer (Molecular Devices). IC50 and IC90 values, concentrations required to inhibit proliferation by 50% and 90% respectively compared to DMSO treated cells, were calculated using Prism 6.0 h (Graphpad Software).\nas §1, with “assay.” for “assay:”, “Software). The 430-member protein kinase inhibitor library used for the chemical genomics screen was purchased from Selleckchem, Catalog No. L1200.” for “Software).”"}, "[2]": {"tested_on": "MIAPACA2 cells", "assay": "ROS measurements (CM-H2DCFDA, MitoSOX)", "type": "cell-based, human", "settings": "24 h", "protocol": "FIGS. 2A-2I. FIG. 2A: representative immunoblots of MIAPACA2 PDAC cells treated as indicated for 24h. FIGS. 2B-2C: reactive oxygen species (ROS) measurement using CM-H2DCFDA staining after HCT13 (25 nM)+Cu(II) (20 μM) treatment for 24h; mean fluorescence intensity (MFI); mean±SD, n=2, Student t-test, ***P<0.001. FIG. 2D-2E: mitochondrial ROS detection using MitoSOX staining in MIAPACA2 PDAC cells treated with HCT-13 (25 nM)+Cu(II) (20 μM) for 24h; mean±SD, n=2, Student t-test, ***P<0.001. FIG. 2F: oxygen consumption rate (OCR) of MIAPACA2 PDAC cells treated with HCT-13 (25 nM)+Cu(II) (20 μM). FIG. 2G: OCR of isolated mitochondria measured with or without HCT-13 (25 nM)+Cu(II) (20 μM). FIG. 2H: viability of 143 BTK parental (wild type, WT) and po cells after 48 h of treatment with the indicated HCT-13 concentrations+Cu(II) (20 μM) treatment, assessed with trypan blue staining; mean±SD, n=2, Student t-test, ***P<0.001. […]\nROS Measurements: Cellular ROS measurement was assayed with CM-H2DCFDA staining after treatment according to manufacturer's instructions (Reactive Oxygen Species (ROS) Detection Reagents, Invitrogen, #D399). […] The samples were analyzed using flow cytometry.\nMitochondrial ROS was measured using MitoSOX staining according to manufacturer's instructions (MitoSOX, Invitrogen, #M36008). […]\nROS Measurements. […] The samples were analyzed using flow cytometry. […]"}}, "note": "Values joined by “and” are separate entries in the source; they are usually repeats but may differ in a detail not shown here. Equal entries are not always repeated. Where two headings read alike, the source gives them in different places.", "data": [{"smiles": "CN(C)C(=S)N/N=C/c1nccc2cc(F)ccc12", "note": "(mixture of isomers) [HCT13, (E)-2-((6-Fluoroisoquinolin-1-yl)methylene)-N,N-dimethylhydrazine-1-carbothioamide and (Z)-2-((6-Fluoroisoquinolin-1-yl)methylene)-N,N-dimethylhydrazine-1-carbothioamide]", "values": [{"measurement": "increase in potency under copper supplementation versus non-copper-supplemented IC90", "setting": "[1]; 20 μM CuCl2", "result": "greater than 5 fold"}, {"measurement": "antiproliferative potency with Cu(II) supplementation", "setting": "[1]; 72 h, Cu(II) 20 μM", "result": "highest"}, {"measurement": "IC90", "setting": "[1]; DMEM + 10% FBS + 20 μM CuCl2, read-out: +Cu(II) IC90", "result": 21.6, "unit": "nM"}, {"measurement": "IC90", "setting": "[1]; DMEM + 10% FBS, no copper supplementation, read-out: IC90", "result": 110, "unit": "nM"}, {"measurement": "potency relative to non-methylated analog HCT3", "setting": "[1]; IC90 without copper", "result": "~50", "unit": "fold"}, {"measurement": "potency relative to non-fluorinated analog", "setting": "[1]; IC90 without copper, analog of same 4′ amine series (HCT1, HCT6 or HCT11)", "result": "~250 fold and ~270 fold"}, {"measurement": "ROS generation (CM-H2DCFDA staining)", "setting": "[2]; HCT13 25 nM + Cu(II) 20 μM", "result": "induced ROS generation"}, {"measurement": "mitochondrial ROS (MitoSOX)", "setting": "[2]; HCT-13 25 nM + Cu(II) 20 μM", "result": "also observed in the mitochondria"}]}]}
